Test results as given in PubChem BioAssay AID1963960 (Molecular Pharmacology Branch, DTP, NCI, 2024).

Tested on: MDA-MB-468 spheroids with HUVEC/MSC, viability
Assay: Anticancer human tumor MDA-MB-468 cell line growth inhibition [PI3K];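 note: spheroids exposed to agents for seven days before readout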;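 for viability, T/C: 100% = DMSO vehicle control viability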
Details: for viability, T/C: stronger effect = lower value
Description: Combinatorial screen of targeted agents with the PI3K inhibitors inavolisib, alpelisib, duvelisib, and copanlisib in multi-cell type tumor spheroids
A high-throughput screen of multi-cell type tumor spheroids was designed to identify active combinations of targeted small molecules and PI3K pathway inhibitors. Complex spheroids include a stromal component modeled by human endothelial cells (HUVEC) and fibroblasts modeled by human mesenchymal stem cells (MSCs). The concentration ranges selected for each drug and investigational agent were based upon clinically achievable concentrations if the clinical Cmax of the agent was known.
Compounds. The drugs and investigational agents: inavolisib (NSC800729), alpelisib (NSC765974), duvelisib (NSC772469), copanlisib (NSC816437), ipatasertib (NSC767898), afuresertib (NSC778305), talazoparib (NSC767125), sapanisertib (NSC764658), selumetinib (NSC741078), tovorafenib (DAY101, NSC766906), vemurafenib (NSC761431), ravoxertinib (NSC781343), sotorasib (NSC818433), MRTX1133 (NSC 836407), abemaciclib (NSC 768073), palbociclib (NSC758247), venetoclax (NSC 766270), SY5609 (NSC837396), enzalutamide (NSC755605), and darolutamide (NSC825331), were obtained from the National Cancer Institute (NCI) Developmental Therapeutics Program Chemical Repository. The FDA-approved anticancer drug set is available from the NCI Developmental Therapeutics Program. […] The stock solutions were prepared in dimethyl sulfoxide (DMSO, Sigma-Aldrich, St. Louis, MO, cat. D2650) at 800-fold the tested concentration and stored at -70 degrees C prior to their use. All drugs and investigational agents were tested over a range starting from a high concentration at or near the clinical Cmax and decreasing in half-log increments. If the clinical Cmax for an agent had not been determined, the highest concentration tested was 10 microM.
Cell Culture. All cells were maintained in an incubator at 37 degrees C and 5% CO2 with 95% humidity. The PDC lines were cultured according to standard operating procedures established by the NCI PDMR (https://pdmr.cancer.gov/sops/default.htm). All PDCs were thawed and cultured in Matrigel-coated flasks prepared with a working solution of 1X Ham's F-12 nutrient mix, without supplementation (Invitrogen, Waltham, MA, cat. 11765054), 100 U/mL penicillin-streptomycin (Invitrogen, cat. 15140122), and 2.5% Matrigel (Corning Inc., Corning, NY, cat. 354248) for the first three passages. The 354836-022-R-J1-PDC, 475296-252-R-J1-PDC, and 997726-040-R-J2-PDC lines were cultured in 6A media, which includes advanced DMEM/F-12 (Thermo Fisher Scientific, cat. 12634028), 10 mM HEPES (Thermo Fisher Scientific, cat. 15630080), 1X GlutaMAX supplement (Thermo Fisher Scientific, cat. 35050061), 0.1 mg/mL primocin (InvivoGen, San Diego, CA, cat. ant-pm-2), 10% defined fetal bovine serum, heat inactivated (HyClone Laboratories Inc., Logan, UT, cat. SH30070.03HI), 50% L-WRN conditioned media (ATCC, cat. CRL-3276), 1.25 mM N-Acetyl-L-cysteine (Sigma-Aldrich, cat. A9165), 10 mM nicotinamide (Sigma-Aldrich, cat. N0636), 1X B-27 supplement (Thermo Fisher Scientific, cat. 17504044), 1X N-2 supplement (Thermo Fisher Scientific, cat. 17502048), and 10 microM Y-27632 dihydrochloride (Tocris Bioscience, Bristol, United Kingdom, cat. 1254). The 624824-186-R-J2-PDC line was cultured in 6C/Colon 1B media, which includes all 6A media components plus 50 ng/mL human EGF recombinant protein (Thermo Fisher Scientific, cat. PHG0311). […]

[1] = curve of first compound, second compound 0.00316 µM
[2] = curve of first compound, second compound 0.01 µM
[3] = curve of first compound, second compound 0.0316 µM
[4] = curve of first compound, second compound 0.1 µM
[5] = curve of first compound, second compound 0.316 µM
[6] = curve of first compound, second compound 1 µM
[7] = second compound 0.00316 µM, first compound 0.0316 µM
[8] = second compound 0.00316 µM, first compound 0.1 µM
[9] = second compound 0.01 µM, first compound 0.0316 µM
[10] = second compound 0.01 µM, first compound 0.1 µM
[11] = second compound 0.0316 µM, first compound 0.0316 µM
[12] = second compound 0.0316 µM, first compound 0.1 µM
[13] = second compound 0.1 µM, first compound 0.0316 µM
[14] = second compound 0.1 µM, first compound 0.1 µM
[15] = second compound 0.316 µM, first compound 0.0316 µM
[16] = second compound 0.316 µM, first compound 0.1 µM
[17] = second compound 1 µM, first compound 0.0316 µM
[18] = second compound 1 µM, first compound 0.1 µM

C#Cc1c(F)ccc2cc(O)cc(-c3ncc4c(N5CC6CCC(C5)N6)nc(OCC56CCCN5CC(F)C6)nc4c3F)c12 (stereo unspecified) + COc1c(OCCCN2CCOCC2)ccc2c3n(c(=NC(=O)c4cnc(N)nc4)nc12)CCN3
IC50 [1]: > 10000 nM | IC50 [2]: > 10000 nM | IC50 [3]: 7830 nM | IC50 [4]: 3670 nM | IC50 [5]: < 31.6 nM | IC50 [6]: < 31.6 nM | viability, T/C [7]: 89.4% | viability, T/C [8]: 82.8% | viability, T/C (second compound 0.00316 µM, first compound 0.316 µM): 96.7% | viability, T/C (second compound 0.00316 µM, first compound 1 µM): 96.8% | viability, T/C (second compound 0.00316 µM, first compound 3.16 µM): 84.5% | viability, T/C (second compound 0.00316 µM, first compound 10 µM): 56.9% | viability, T/C [9]: 72.7% | viability, T/C [10]: 91.3% | viability, T/C (second compound 0.01 µM, first compound 0.316 µM): 87% | viability, T/C (second compound 0.01 µM, first compound 1 µM): 87% | viability, T/C (second compound 0.01 µM, first compound 3.16 µM): 77.7% | viability, T/C (second compound 0.01 µM, first compound 10 µM): 61% | viability, T/C [11]: 76.5% | viability, T/C [12]: 68.8% | viability, T/C (second compound 0.0316 µM, first compound 0.316 µM): 74.2% | viability, T/C (second compound 0.0316 µM, first compound 1 µM): 83.9% | viability, T/C (second compound 0.0316 µM, first compound 3.16 µM): 72.4% | viability, T/C (second compound 0.0316 µM, first compound 10 µM): 43.7% | viability, T/C [13]: 53.9% | viability, T/C [14]: 52% | viability, T/C (second compound 0.1 µM, first compound 0.316 µM): 61.3% | viability, T/C (second compound 0.1 µM, first compound 1 µM): 61.8% | viability, T/C (second compound 0.1 µM, first compound 3.16 µM): 52.8% | viability, T/C (second compound 0.1 µM, first compound 10 µM): 24.6% | viability, T/C [15]: 25.1% | viability, T/C [16]: 23% | viability, T/C (second compound 0.316 µM, first compound 0.316 µM): 25.9% | viability, T/C (second compound 0.316 µM, first compound 1 µM): 27.2% | viability, T/C (second compound 0.316 µM, first compound 3.16 µM): 20.1% | viability, T/C (second compound 0.316 µM, first compound 10 µM): 6.75% | viability, T/C [17]: 2.58% | viability, T/C [18]: 2.36% | viability, T/C (second compound 1 µM, first compound 0.316 µM): 2.21% | viability, T/C (second compound 1 µM, first compound 1 µM): 2.61% | viability, T/C (second compound 1 µM, first compound 3.16 µM): 1.99% | viability, T/C (second compound 1 µM, first compound 10 µM): 0.74%

CC(Nc1ncnc2nc[nH]c12)c1cc2cccc(Cl)c2c(=O)n1-c1ccccc1 (stereo unspecified)
viability, T/C (compound 0.0316 µM): 94% [middle of 8 runs] | viability, T/C (compound 0.1 µM): 93.1% [middle of 8 runs] | viability, T/C (compound 0.316 µM): 81% [middle of 8 runs] | viability, T/C (compound 1 µM): 71.2% [middle of 8 runs] | viability, T/C (compound 3.16 µM): 55.5% [middle of 8 runs] | viability, T/C (compound 10 µM): 40.7% [middle of 8 runs] | IC50 (compound alone, run of 05/09/2023): 4.95 µM [middle of 8 runs]

CC(C)n1nc(-c2ccc3oc(N)nc3c2)c2c(N)ncnc21 + CC(Nc1ccc2c(c1)OCCn1cc(N3C(=O)OCC3C(F)F)nc1-2)C(N)=O
IC50 [1]: 48.5 nM | IC50 [2]: 41.8 nM | IC50 [3]: 38.5 nM | IC50 [4]: 36.7 nM | IC50 [5]: 31.2 nM | IC50 [6]: 23 nM | viability, T/C (second compound 0.00316 µM, first compound 0.000316 µM): 89.9% | viability, T/C (second compound 0.00316 µM, first compound 0.001 µM): 100% | viability, T/C (second compound 0.00316 µM, first compound 0.00316 µM): 91.8% | viability, T/C (second compound 0.00316 µM, first compound 0.01 µM): 92.6% | viability, T/C [7]: 69.5% | viability, T/C [8]: 16.7% | viability, T/C (second compound 0.01 µM, first compound 0.000316 µM): 95.1% | viability, T/C (second compound 0.01 µM, first compound 0.001 µM): 96.8% | viability, T/C (second compound 0.01 µM, first compound 0.00316 µM): 88% | viability, T/C (second compound 0.01 µM, first compound 0.01 µM): 99% | viability, T/C [9]: 59.2% | viability, T/C [10]: 21.1% | viability, T/C (second compound 0.0316 µM, first compound 0.000316 µM): 100% | viability, T/C (second compound 0.0316 µM, first compound 0.001 µM): 94.8% | viability, T/C (second compound 0.0316 µM, first compound 0.00316 µM): 77.4% | viability, T/C (second compound 0.0316 µM, first compound 0.01 µM): 83% | viability, T/C [11]: 58.5% | viability, T/C [12]: 15% | viability, T/C (second compound 0.1 µM, first compound 0.000316 µM): 103% | viability, T/C (second compound 0.1 µM, first compound 0.001 µM): 82.4% | viability, T/C (second compound 0.1 µM, first compound 0.00316 µM): 87.8% | viability, T/C (second compound 0.1 µM, first compound 0.01 µM): 82.3% | viability, T/C [13]: 54.2% | viability, T/C [14]: 11.8% | viability, T/C (second compound 0.316 µM, first compound 0.000316 µM): 87.2% | viability, T/C (second compound 0.316 µM, first compound 0.001 µM): 82.8% | viability, T/C (second compound 0.316 µM, first compound 0.00316 µM): 87.6% | viability, T/C (second compound 0.316 µM, first compound 0.01 µM): 84.9% | viability, T/C [15]: 49.6% | viability, T/C [16]: 12.7% | viability, T/C (second compound 1 µM, first compound 0.000316 µM): 105% | viability, T/C (second compound 1 µM, first compound 0.001 µM): 80.8% | viability, T/C (second compound 1 µM, first compound 0.00316 µM): 75.2% | viability, T/C (second compound 1 µM, first compound 0.01 µM): 70.8% | viability, T/C [17]: 46.6% | viability, T/C [18]: 12.3%
